Data published in patent publication US11497710B2, “Eye drop formulation and method for sustained delivery of medicament to the retina” (Chibi, Inc., priority 2018, dated 2022).

Experiments:
[1] = Vitamin E acetate in rabbit tear samples after single 50 μL instillation; format: in vivo
Method: Subsequently, tear samples were collected using filter paper strips, and the vitamin E acetate contained in the paper strips extracted using methanol. The amount of vitamin E acetate in the methanol extracts was analyzed using LC/MS/MS by known methods.

[2] = Vitamin E acetate in rabbit aqueous humor samples; format: in vivo; conditions: days 1, 4, 7, 12; quantification limit 1.0 ng/mL

CC(=O)Oc1c(C)c(C)c2c(c1C)CC[C@@](C)(CCC[C@H](C)CCC[C@H](C)CCCC(C)C)O2 [Vitamin E acetate, [(2R)-2,5,7,8-tetramethyl-2-[(4R,8R)-4,8,12-trimethyltridecyl]chroman-6-yl] acetate]
Time vitamin E acetate present in tears of rabbit eyes [1]: at least 12 days
concentration at 1 day ([1]; rabbit, tears, topical, Day 1): 5250 ng/mL
concentration at 4 day ([1]; rabbit, tears, topical, Day 4): 114 ng/mL
concentration at 7 day ([1]; rabbit, tears, topical, Day 7): 98.6 ng/mL
concentration at 12 day ([1]; rabbit, tears, topical, Day 12): 27.4 ng/mL
Vitamin E acetate in aqueous humor samples [2]: No detectable
